Our source for the Kd values is ChEMBL document CHEMBL1130785, “A labeled guanidine ligand for studying sweet taste” (Bioorg Med Chem Lett, 1998).

The assay in a line: The compound was evaluated for binding affinity towards monoclonal antibody NC10.14 using competitive radioimmunoassay.

Compound `N#Cc1ccc(N/C(=N\CC(=O)O)NC(c2ccccc2)c2ccccc2)cc1` registered an equilibrium dissociation constant (Kd) of 18 nM.
